Reference: patent publication US5688807A, “Method for treating 5HT2B receptor related conditions” (Eli Lilly and Company, priority 1995, dated 1997)
Structures can show the parent of a compound that is named as a salt.

Assays:
colon = assay: In vivo inhibition of serotonin-induced colonic motility in anesthetized rats; conditions: Rattus norvegicus, iv; anesthetized Sprague-Dawley rats
Procedure: Sprague-Dawley Rats (250-300 g) were fasted overnight. The rats were anesthetized with urethane ([…]) delivered intraperitoneally. The abdominal cavity was opened and strain guage transducers were sewn on the antimesenteric border of the colon. The transducers were oriented to record circular muscle contractions. The animal body temperature was maintained by a heating pad. An intravenous catheter was inserted into the jugular vein for drug administration. The carotid blood pressure was also monitored. Output of the strain guage transducers was graphed on a Beckman Dynograph. Baseline motility was monitored for 30 minutes. At the end of the 30 minute period, a vehicle control dose was administered and motility was recorded for an additional 15 minutes. A serotonin dose response was developed. Successively higher doses of serotonin were administered at 15 minute intervals. An ED50 dose was calculated, which was the dose producing half maximal contraction. In antagonist experiments, historical ED50 dose was administered to validate the experimental set up. Next, a dose of antagonist was given. The motility was monitored for 15 minutes. […] Motility was evaluated by measuring the number of contractions and multiplying them by the amplitude of contractions over a set time period to provide a Motility Index. The percent inhibition was calculated from the vehicle (no antagonist) treated group. […]

distal colon = assay: Functional in vitro assay: antagonism of serotonin contraction of rat distal colon longitudinal muscle; conditions: vs serotonin
Excerpt: Functional In vitro Assay:
Sprague-Dawley rats (200-250g; Laboratory Supply, Indianapolis, Ind.) were sacrificed by cervical dislocation and 8 cm segment of distal colon was removed and washed in ice cold modified Kreb's solution of the following composition (millimolar): Nacl, 118.2; Kcl, 4.6; Cacl2. H2 O, 1.6; KH2 PO4, 1.2; MgSO4, 1.2; dextrose, 10.0; and NaHCO3, 24.8. The colon was mounted on a glass rod and the longitudinal muscle layer with attached myenteric plexi was removed and mounted in organ baths, containing above described Kreb's solution maintained at 37° C. and equilibrated with 95% O2 and 5% CO2. Tissues were placed under 2 g tension and allowed to stabilize for 1 hour. Isometric contractions were recorded as changes in grams of force using grass FT03 transducers and MI^2 - computerized dynograph system. Cumulative concentration-response curves for serotonin were obtained by a stepwise increase in concentration after washing out the preceding concentration for 10-15 minutes. Each agonist concentration remained in contact with the tissue for 5 minutes. Maximum response to each concentration was determined and digitized. EC50 values were taken as the concentration of agonist that produced half maximal contraction. After control responses were obtained, tissues were incubated with an appropriate concentration of antagonist for 15 minutes. Response to serotonin were then repeated in the presence of an antagonist. Concentration-response utilized only one concentration of antagonist per tissue. Apparent antagonist dissociation constants (KB) were determined for each concentration of antagonist according to the following equation:
KB =[B]/(dose ratio-1), where [B] is the concentration of the antagonist and dose ratio is the ED50 of the agonist in the presence of antagonist divided by the control ED50. The results were expressed as the negative logarithm of the KB (i.e., -log KB) (Br. J. Pharmacol. Methods 4:4165, (1980).
The functional in vitro method described supra. was used to test compounds of this invention. Values are expressed as pKi and pA2 (-log KB). The following table illustrates the results obtained when the compounds were tested using the Radioligand assay supra. (pKi) and the functional in vitro method described supra. (pA2)

rat 5-HT2B receptor = rat 5-HT2B receptor (Rattus norvegicus, UniProt P30994); assay: biochemical; format: binding; conditions: Radioligand assay; Table III;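 note: displacement of [3H]5-HT from membranes of suspension cells carrying cloned rat 5-HT2B receptor, incubated 15 min at 37 °C or 2 h at 0 °C, filter-bound radioactivity counted by scintillation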
rat 5-HT2B receptor, sequence (P30994 whole entry): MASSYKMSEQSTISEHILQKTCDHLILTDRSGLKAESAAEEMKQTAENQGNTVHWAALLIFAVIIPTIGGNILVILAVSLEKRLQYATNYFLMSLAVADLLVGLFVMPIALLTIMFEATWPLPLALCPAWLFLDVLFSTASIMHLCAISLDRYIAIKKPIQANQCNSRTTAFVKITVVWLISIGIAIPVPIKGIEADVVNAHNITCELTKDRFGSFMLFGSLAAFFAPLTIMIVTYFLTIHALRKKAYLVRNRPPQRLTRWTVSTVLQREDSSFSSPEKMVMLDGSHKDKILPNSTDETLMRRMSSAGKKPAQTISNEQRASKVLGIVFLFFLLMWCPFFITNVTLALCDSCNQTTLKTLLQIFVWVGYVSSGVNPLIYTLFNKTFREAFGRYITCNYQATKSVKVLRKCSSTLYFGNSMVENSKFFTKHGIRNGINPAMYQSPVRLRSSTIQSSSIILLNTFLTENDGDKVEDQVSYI

Human 5-HT2A = Human 5-HT2A (Homo sapiens, UniProt P28223); assay: [125I]DOI radioligand binding, human 5-HT2A
Human 5-HT2A, sequence (P28223 whole entry): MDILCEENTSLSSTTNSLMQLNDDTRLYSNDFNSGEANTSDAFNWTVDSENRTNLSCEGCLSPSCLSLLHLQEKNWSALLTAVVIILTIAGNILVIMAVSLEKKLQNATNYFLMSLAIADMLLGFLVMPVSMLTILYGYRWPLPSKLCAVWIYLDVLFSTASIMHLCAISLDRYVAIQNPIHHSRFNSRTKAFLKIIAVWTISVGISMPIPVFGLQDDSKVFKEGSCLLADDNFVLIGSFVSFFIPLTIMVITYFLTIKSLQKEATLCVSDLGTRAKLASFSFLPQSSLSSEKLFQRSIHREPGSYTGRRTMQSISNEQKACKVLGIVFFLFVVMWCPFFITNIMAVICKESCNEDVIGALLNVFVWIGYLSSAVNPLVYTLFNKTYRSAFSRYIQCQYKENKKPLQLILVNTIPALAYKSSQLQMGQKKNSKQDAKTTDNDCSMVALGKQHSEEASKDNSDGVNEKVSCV

5HT2C = biological target: T1, 5HT2C (Homo sapiens, UniProt P28335); assay: Human cell assay, 5HT2C cells; format: binding; conditions: Cell assays use Human Cells
T1 construct: expressed in transfected cells
T1 sequence (P28335 33-458): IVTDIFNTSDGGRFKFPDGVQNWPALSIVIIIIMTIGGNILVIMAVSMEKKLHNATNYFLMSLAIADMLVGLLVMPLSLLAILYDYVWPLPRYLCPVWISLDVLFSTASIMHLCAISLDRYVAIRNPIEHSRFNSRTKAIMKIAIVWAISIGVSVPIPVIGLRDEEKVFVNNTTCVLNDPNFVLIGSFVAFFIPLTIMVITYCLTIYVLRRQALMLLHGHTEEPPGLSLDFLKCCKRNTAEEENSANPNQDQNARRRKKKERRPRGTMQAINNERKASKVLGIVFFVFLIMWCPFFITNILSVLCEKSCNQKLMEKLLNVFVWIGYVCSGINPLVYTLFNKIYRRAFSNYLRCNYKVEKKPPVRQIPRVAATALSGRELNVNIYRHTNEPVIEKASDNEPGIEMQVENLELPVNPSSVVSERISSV
Procedure: Compounds of this invention were tested using substantially the procedure describe in the Radioligand assay supra. and are summarized in Table I infra. The values in Table I are expressed as Ki values calculated as described supra. The blank values in Table I indicate that the compound was not tested in the corresponding assay.

Human 5-HT2B = biological target: T2, Human 5-HT2B (Homo sapiens, UniProt P41595); assay: [3H]Serotonin radioligand binding, human 5-HT2B; conditions: Cell assays use Human Cells; read-out: Ki, 5HT2B Cells;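 note: competition of tritiated serotonin binding to cell membranes, bound radioactivity on filters counted by liquid scintillation, IC50 from logistic fits converted to Ki with the Cheng-Prusoff equation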
T2 construct: expressed in transfected cells
T2 sequence (P41595 whole entry): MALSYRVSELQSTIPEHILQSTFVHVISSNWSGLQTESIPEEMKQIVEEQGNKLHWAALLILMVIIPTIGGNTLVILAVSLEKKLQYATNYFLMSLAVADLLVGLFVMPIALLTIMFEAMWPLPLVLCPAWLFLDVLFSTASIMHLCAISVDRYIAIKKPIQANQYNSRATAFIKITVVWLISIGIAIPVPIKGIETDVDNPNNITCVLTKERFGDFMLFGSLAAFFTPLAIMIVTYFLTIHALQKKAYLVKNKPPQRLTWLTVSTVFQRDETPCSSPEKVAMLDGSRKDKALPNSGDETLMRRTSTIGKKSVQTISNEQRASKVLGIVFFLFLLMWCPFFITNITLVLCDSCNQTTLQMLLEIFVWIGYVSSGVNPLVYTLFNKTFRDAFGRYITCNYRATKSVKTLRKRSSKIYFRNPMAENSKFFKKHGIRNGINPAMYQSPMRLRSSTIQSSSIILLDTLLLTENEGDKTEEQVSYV

SMILES | ED50 (colon) [mg/kg] | pA2 (-log KB) (distal colon) | pKi (rat 5-HT2B receptor) | Ki (Human 5-HT2A) [nM] | Ki (5HT2C) [nM] | Ki (Human 5-HT2B) [nM]
Cc1cc(Br)c2[nH]c3c(c2c1)CCNC3 [Example 73, 6-methyl-8-bromo-1,2,3,4-tetrahydro-9H-pyrido[3,4b]-indole] | 3.2 | 8.9 | 7.85 | – | – | –
Cc1ccc2[nH]c3c(c2c1)[C@@H]1CCCC[C@H]1NC3Cc1cccc2ccccc12 (stereo partly drawn) [Example 105, Trans-10-methyl-6-(1-naphthylmethyl)-2,3,4,4a,5,6,7,11c-octahydro-1H-indolo[2,3-c]quinoline, hydrochloride] | – | – | – | 86.5 | 195 | 22.1
COc1cc2c(cc1OC)CC1(CC2)N[C@@H]2CCCC[C@H]2c2c1[nH]c1ccc(C)cc21 (stereo partly drawn) [Example 107, Trans-spiro-6,6-[2-(3,4-dimethoxy)-1,2,3,4-tetrahydronaphthyl]-10-methyl-2,3,4,4a,5,6,7,11a-octahydro-1H-indolo[2,3-c]quinidine, hydrochloride] | – | – | – | 363 | 325 | 178
